Assay results as given in US20050209278A1, “Piperidinyl- and piperazinyl-sulfonylmethyl hydroxamic acids and their use as protease inhibitors” (priority 2002, published 2005).
Structures can show the parent of a compound that is named as a salt. Where two headings read alike, the source gives them in different places.

Experiments:
Type in all cases: biochemical
MMP-1 = biological target: T1, MMP-1 (Homo sapiens, UniProt P03956); assay: MMP-1 inhibition (in vitro Ki)
T1 construct: made in house; host or cells: MMP-1-transfected HT-1080 cells (spent media)
T1 sequence (P03956 100-469): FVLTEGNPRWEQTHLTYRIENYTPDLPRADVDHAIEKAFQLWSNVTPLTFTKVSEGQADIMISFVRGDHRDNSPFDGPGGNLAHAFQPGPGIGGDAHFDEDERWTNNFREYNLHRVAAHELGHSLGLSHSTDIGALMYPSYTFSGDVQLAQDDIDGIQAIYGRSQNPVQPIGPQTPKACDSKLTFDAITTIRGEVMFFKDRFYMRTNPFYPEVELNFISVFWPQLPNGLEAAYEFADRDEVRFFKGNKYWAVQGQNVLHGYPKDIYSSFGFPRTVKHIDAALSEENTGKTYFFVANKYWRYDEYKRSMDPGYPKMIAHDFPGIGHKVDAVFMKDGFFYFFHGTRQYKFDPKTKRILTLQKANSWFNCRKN

MMP-2 = biological target: T2, MMP-2 (Homo sapiens, UniProt P08253); assay: MMP-2 inhibition (in vitro Ki)
T2 construct: made in house; host or cells: MMP-2-transfected p2AHT2 cells
T2 sequence (P08253 110-660): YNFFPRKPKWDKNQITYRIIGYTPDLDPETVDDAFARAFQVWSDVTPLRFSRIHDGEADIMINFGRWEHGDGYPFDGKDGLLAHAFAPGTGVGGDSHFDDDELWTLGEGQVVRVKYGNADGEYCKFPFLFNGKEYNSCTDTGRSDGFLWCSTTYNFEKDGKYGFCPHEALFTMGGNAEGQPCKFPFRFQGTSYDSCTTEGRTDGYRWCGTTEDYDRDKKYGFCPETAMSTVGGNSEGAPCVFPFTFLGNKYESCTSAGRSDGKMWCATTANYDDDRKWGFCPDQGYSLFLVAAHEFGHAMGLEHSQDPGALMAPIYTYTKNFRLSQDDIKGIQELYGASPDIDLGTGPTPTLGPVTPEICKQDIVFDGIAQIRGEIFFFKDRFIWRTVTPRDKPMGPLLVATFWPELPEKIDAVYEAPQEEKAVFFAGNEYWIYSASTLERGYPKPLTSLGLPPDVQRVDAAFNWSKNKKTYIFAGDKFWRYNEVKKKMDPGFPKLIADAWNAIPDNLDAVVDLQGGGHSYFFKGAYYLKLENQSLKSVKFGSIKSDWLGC

MMP-9 = biological target: T3, MMP-9 (Homo sapiens, UniProt P14780); assay: MMP-9 inhibition (in vitro Ki)
T3 construct: made in house; host or cells: MMP-9-transfected HT1080 cells (spent media)
T3 sequence (P14780 107-707 limits assumed): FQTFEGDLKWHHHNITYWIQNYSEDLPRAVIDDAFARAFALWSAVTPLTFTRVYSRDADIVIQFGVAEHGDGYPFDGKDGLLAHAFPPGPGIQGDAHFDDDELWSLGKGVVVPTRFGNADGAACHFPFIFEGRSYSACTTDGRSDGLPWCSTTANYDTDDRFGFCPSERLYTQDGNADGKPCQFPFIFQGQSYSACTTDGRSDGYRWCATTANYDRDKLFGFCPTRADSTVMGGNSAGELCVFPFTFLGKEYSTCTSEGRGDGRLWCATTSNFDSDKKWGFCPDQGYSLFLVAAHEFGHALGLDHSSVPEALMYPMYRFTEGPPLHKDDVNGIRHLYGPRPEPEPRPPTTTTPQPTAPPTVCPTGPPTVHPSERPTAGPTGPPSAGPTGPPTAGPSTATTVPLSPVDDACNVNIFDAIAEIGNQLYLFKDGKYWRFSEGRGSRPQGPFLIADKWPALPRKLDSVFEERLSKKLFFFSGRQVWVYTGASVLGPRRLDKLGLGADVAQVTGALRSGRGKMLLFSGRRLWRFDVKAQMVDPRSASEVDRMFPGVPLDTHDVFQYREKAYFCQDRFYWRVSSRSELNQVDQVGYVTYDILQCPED

MMP-13 = biological target: T4, MMP-13 (Homo sapiens, UniProt P45452); assay: MMP-13 inhibition (in vitro Ki)
T4 construct: made in house; host or cells: baculovirus / insect cells

MMP-14 = biological target: T5, MMP-14 (Homo sapiens, UniProt P50281); assay: MMP-14 inhibition (in vitro Ki)
T5 construct: The catalytic domain enzyme was expressed in E. coli inclusion bodies, solubilized in urea; made in house

[1] = Table 9, read-out: MMP-1 Ki (IC-50)
[2] = Table 9, read-out: MMP-2 Ki (IC-50)
[3] = Table 9, read-out: MMP-9 Ki (IC-50)
[4] = Table 9, read-out: MMP-13 Ki (IC-50)
[5] = Table 9, read-out: MMP-14 Ki (IC-50)

Row | SMILES | Ki (MMP-1; Table 8, read-out: MMP-1 Ki) [nM] | Ki (MMP-2; Table 8, read-out: MMP-2 Ki) [nM] | Ki (MMP-9; Table 8, read-out: MMP-9 Ki) [nM] | Ki (MMP-13; Table 8, read-out: MMP-13 Ki) [nM] | Ki (MMP-14; Table 8, read-out: MMP-14 Ki) [nM] | Ki (MMP-1; [1]) [nM] | Ki (MMP-2; [2]) [nM] | Ki (MMP-9; [3]) [nM] | Ki (MMP-13; [4]) [nM] | Ki (MMP-14; [5]) [nM]
1 | O=C(NO)C1(S(=O)(=O)N2CCC(OCCCCCC(F)(F)C(F)(F)F)CC2)CCOCC1 [Example A50, 4-[4-(6,6,7,7,7-pentafluoro-heptyloxy)-piperidine-1-sulfonyl]-tetrahydro-pyran-4-carboxylic Acid Hydroxyamide] | > 10000 | 1.57 | 7.1 | 0.6 | 4560 |  |  |  |  | 
2 | O=C(/C=C/C=C/C1CCN(S(=O)(=O)C2(C(=O)NO)CCOCC2)CC1)N1CCc2ccccc21 [Example A80] |  |  |  |  |  | 5450 | 239 | 1890 | 0.389 | > 10000
3 | COCCN1CCC(C(=O)NO)(S(=O)(=O)N2CCC(c3ccc(CCC(F)(F)C(F)(F)F)cn3)CC2)CC1 [Example A182] |  |  |  |  |  | > 10000 | 0.93 | 0.39 | 0.3 | 5890
4 | CC(C)CN(C)C(=O)/C=C/C=C/C1CCN(S(=O)(=O)C2(C(=O)NO)CCOCC2)CC1 [Example A77] |  |  |  |  |  | 6200 | 1100 | 5910 | 6.79 | > 10000
5 | O=C(NO)C1(S(=O)(=O)N2CCC(CCCCCC(F)(F)C(F)(F)F)CC2)CCOCC1 [Example A54, 4-[4-(6,6,7,7,7-pentafluoro-heptyl)-piperidine-1-sulfonyl]-tetrahydro-pyran-4-carboxylic Acid Hydroxyamide] | > 10000 | 1.06 | 0.81 | 0.67 | 3410 |  |  |  |  | 
6 | O=C(NO)C1(S(=O)(=O)N2CCC(COCCCC(F)(F)F)CC2)CCOCC1 [Example A42, 4-[4-(4,4,4-trifluoro-butoxymethyl)-piperidine-1-sulfonyl]-tetrahydro-pyran-4-carboxylic Acid Hydroxyamide] | > 10000 | 22 | 28.6 | 33.3 | > 10000 |  |  |  |  | 
7 | O=C(NO)C1(S(=O)(=O)N2CCC(c3ccc(CCC(F)(F)C(F)(F)F)cn3)CC2)CC=CC1 [Example A101] |  |  |  |  |  | 721 | 0.9 | 0.33 | 0.17 | 2640
8 | O=C(NO)C1(S(=O)(=O)N2CCN(c3ccc(CCCC(F)(F)F)c(F)c3)CC2)CCN(C2CC2)CC1 [Example A62, 1-cyclopropyl-4-({4-[3-fluoro-4-(4,4,4-trifluorobutyl)phenyl]piperazin-1-yl}sulfonyl)-N-hydroxypiperidine-4-carboxamide Hydrochloride] | > 10000 | 0.73 | 1.74 | 0.56 | 9050 |  |  |  |  | 
9 | O=C(NO)C1(S(=O)(=O)N2CCN(c3ccc(CCCC(F)(F)F)cc3)CC2)CCN(CC(F)(F)F)CC1 [Example A183] |  |  |  |  |  | > 10000 | 2.06 | 307 | 1.07 | > 10000
10 | CCC(F)(F)c1ccc(C2CCN(S(=O)(=O)C3(C(=O)NO)CCOCC3)CC2)nc1 [Example A129] |  |  |  |  |  | 650 | 2.96 | 10.8 | 2.81 | 4540
11 | CCC(CC)(C(=O)NO)S(=O)(=O)N1CCC(c2ccc(CCC(F)(F)C(F)(F)F)cn2)CC1 [Example A60, 2-ethyl-N-hydroxy-2-({4-[5-(3,3,4,4,4-pentafluorobutyl)pyridin-2-yl]piperidin-1-yl}sulfonyl)butanamide Hydrochloride] | 9180 | 1.23 | 0.63 | 0.4 | 6070 |  |  |  |  | 
12 | COCC#Cc1ccc(C2CCN(S(=O)(=O)C3(C(=O)NO)CCOCC3)CC2)nc1 [Example A171] |  |  |  |  |  | 4180 | 0.42 | 0.54 | 0.31 | 604
13 | O=C(NO)C1(S(=O)(=O)N2CCC(CCCCC(F)(F)C(F)(F)F)CC2)CCOCC1 [Example A53, 4-[4-(5,5,6,6,6-pentafluoro-hexyl)-piperidine-1-sulfonyl]-tetrahydro-pyran-4-carboxylic Acid Hydroxyamide] | 2880 | 1.1 | 2.46 | 2.45 | 2360 |  |  |  |  | 
14 | CCC(CC)(C(=O)NO)S(=O)(=O)N1CCC(c2ccc(OCC3CC3)cn2)CC1 [Example A124] |  |  |  |  |  | 3040 | 3.42 | 0.59 | 3.11 | 7290
15 | O=C(/C=C/C=C/C1CCN(S(=O)(=O)C2(C(=O)NO)CCOCC2)CC1)N1CCc2ccccc2C1 [Example A75] |  |  |  |  |  | 6150 | 228 | 501 | 0.41 | > 10000
16 | CC(C)CN(C)C(=O)CCCCC1CCN(S(=O)(=O)C2(C(=O)NO)CCOCC2)CC1 [Example A91] |  |  |  |  |  | 2580 | 781 | 3800 | 5.08 | > 10000
17 | CCCCCCOC1CCN(S(=O)(=O)C2(C(=O)NO)CCOCC2)CC1 [Example A36, 4-(4-hexyloxy-piperidine-1-sulfonyl)-tetrahydro-pyran-4-carboxylic Acid Hydroxyamide] | > 10000 | 3.51 | 0.95 | 5.92 | 1940 |  |  |  |  | 
18 | CCS(=O)(=O)c1ccc(N2CCN(S(=O)(=O)C3(C(=O)NO)CCOCC3)CC2)cc1 [Example A164] |  |  |  |  |  | > 10000 | 63 | 2970 | 42.2 | > 10000
19 | CC(C)CC#Cc1ccc(C2CCN(S(=O)(=O)C3(C(=O)NO)CCOCC3)CC2)nc1 [Example A138] |  |  |  |  |  | 3440 | 0.68 | 0.24 | 0.14 | 763
20 | CCOCc1ccc(C2CCN(S(=O)(=O)C3(C(=O)NO)CCOCC3)CC2)nc1 [Example A179] |  |  |  |  |  | > 10000 | 2.51 | 0.49 | 1.9 | 4280
21 | O=C(NO)C1(S(=O)(=O)N2CCC(c3ccc(CCC(F)(F)C(F)(F)F)cn3)CC2)CCN(c2ccc(Cl)cc2)CC1 [Example A158] |  |  |  |  |  | > 10000 | 14.6 | 13.4 | 8.98 | > 10000
22 | Cn1nnc(-c2ccc(C3CCN(S(=O)(=O)C4(C(=O)NO)CCOCC4)CC3)cc2)n1 [Example A202] |  |  |  |  |  | 2300 | 0.46 | 0.92 | 2.08 | 1230
23 | O=C(NO)C1(S(=O)(=O)N2CCC(c3ccc(COCC4CC4)cn3)CC2)CCOCC1 [Example A162] |  |  |  |  |  | 4510 | 1.15 | 0.194 | 0.301 | 2290
